Drawing on US10519152B2, “Compounds and their use in treating cancer” (AstraZeneca AB, priority 2017, dated 2019), this text covers IC50 for 14 molecules.

For this test, the target named is T1, recombinant human Estrogen Receptor alpha ligand binding domain, residues 307-554 (ER alpha-LBD (GST)) (Homo sapiens, UniProt P03372).
T1 construct: made in house
T1 sequence (P03372 307-554): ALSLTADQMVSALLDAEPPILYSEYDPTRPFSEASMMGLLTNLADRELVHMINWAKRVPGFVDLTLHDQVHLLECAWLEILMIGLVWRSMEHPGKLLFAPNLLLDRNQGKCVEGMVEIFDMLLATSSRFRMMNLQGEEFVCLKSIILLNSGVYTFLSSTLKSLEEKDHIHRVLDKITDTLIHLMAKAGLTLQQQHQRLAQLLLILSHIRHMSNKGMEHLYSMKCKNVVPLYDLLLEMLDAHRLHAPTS
The experiment in a line: ERα binding assay (LanthaScreen TR-FRET competition). The conditions noted are these: TR-FRET competition with Fluormone ES2 tracer, 4 hours at room temperature; single experiment or average of two or more. For orientation: Time-resolved FRET reads energy transfer from a long-lived donor to a nearby acceptor.

As a reminder, the IC50 is the concentration at which inhibition is half-maximal. `Cc1ncsc1-c1ccc(CNC(=O)[C@@H]2C[C@@H](O)CN2C(=O)[C@@H](NC(=O)c2ccc(N3CCN(CCNC(=O)/C=C/c4cc(F)c([C@@H]5c6[nH]c7ccccc7c6C[C@@H](C)N5CC(C)(C)F)c(F)c4)CC3)cc2)C(C)(C)C)cc1` [Example 67, (2S,4R)-1-((S)-2-(4-(4-(2-((E)-3-(3,5-difluoro-4-((1R,3R)-2-(2-fluoro-2-methylpropyl)-3-methyl-2,3,4,9-tetrahydro-1H-pyrido[3,4-b]indol-1-yl)phenyl)acrylamido)ethyl)piperazin-1-yl)benzamido)-3,3-dimethylbutanoyl)-4-hydroxy-N-(4-(4-methylthiazol-5-yl)benzyl)pyrrolidine-2-carboxamide, Trifluoroacetic Acid]: the IC50 came to 1.1 nM.
In the case of `Cc1ncsc1-c1ccc(CNC(=O)[C@@H]2C[C@@H](O)CN2C(=O)[C@@H](NC(=O)COCCOCCOCCOCCOCC(=O)Nc2ccc([C@@H]3c4[nH]c5ccccc5c4C[C@@H](C)N3CC(C)(C)F)cc2)C(C)(C)C)cc1` [Example 56, N^1-(4-((1R,3R)-2-(2-fluoro-2-methylpropyl)-3-methyl-2,3,4,9-tetrahydro-1H-pyrido[3,4-b]indol-1-yl)phenyl)-N^17—((S)-1-((2S,4R)-4-hydroxy-2-((4-(4-methylthiazol-5-yl)benzyl)carbamoyl)pyrrolidin-1-yl)-3,3-dimethyl-1-oxobutan-2-yl)-3,6,9,12,15-pentaoxaheptadecanediamide, Trifluoroacetic Acid] it was 20 nM.
Then `Cc1ncsc1-c1ccc(CNC(=O)[C@@H]2C[C@@H](O)CN2C(=O)[C@@H](NC(=O)COCc2ccc(COc3cc(F)c([C@@H]4c5[nH]c6ccccc6c5C[C@@H](C)N4CC(C)(C)F)c(F)c3)cn2)C(C)(C)C)cc1` [Example 86, (2S,4R)-1-((S)-2-(2-((5-((3,5-Difluoro-4-((1R,3R)-2-(2-fluoro-2-methylpropyl)-3-methyl-2,3,4,9-tetrahydro-1H-pyrido[3,4-b]indol-1-yl)phenoxy)methyl)pyridin-2-yl)methoxy)acetamido)-3,3-dimethylbutanoyl)-4-hydroxy-N-(4-(4-methylthiazol-5-yl)benzyl)pyrrolidine-2-carboxamide], with 0.7 nM; and `Cc1ncsc1-c1ccc(CNC(=O)[C@@H]2C[C@@H](O)CN2C(=O)[C@@H](NC(=O)COCCOCCOCCOc2cc(F)c([C@@H]3c4[nH]c5ccccc5c4C[C@@H](C)N3CC(F)(F)CO)c(F)c2)C(C)(C)C)cc1` [Example 71, (2S,4R)-1-((S)-2-(tert-Butyl)-14-(4-((1R,3R)-2-(2,2-difluoro-3-hydroxypropyl)-3-methyl-2,3,4,9-tetrahydro-1H-pyrido[3,4-b]indol-1-yl)-3,5-difluorophenoxy)-4-oxo-6,9,12-trioxa-3-azatetradecanoyl)-4-hydroxy-N-(4-(4-methylthiazol-5-yl)benzyl)pyrrolidine-2-carboxamide], with 1.3 nM; and `Cc1ncsc1-c1ccc(CNC(=O)[C@@H]2C[C@@H](O)CN2C(=O)[C@@H](NC(=O)COCCCCOCCCOc2cc(F)c([C@@H]3c4[nH]c5ccccc5c4C[C@@H](C)N3CC(C)(C)F)c(F)c2)C(C)(C)C)cc1` [Example 93], with 0.7 nM.
Then `Cc1ncsc1-c1ccc(CNC(=O)[C@@H]2C[C@@H](O)CN2C(=O)[C@@H](NC(=O)COCc2cccc(CCCOc3cc(F)c([C@@H]4c5[nH]c6ccccc6c5C[C@@H](C)N4CC(C)(C)F)c(F)c3)c2)C(C)(C)C)cc1` [Example 74, (2S,4R)-1-((S)-2-(2-((3-(3-(3,5-Difluoro-4-((1R,3R)-2-(2-fluoro-2-methylpropyl)-3-methyl-2,3,4,9-tetrahydro-1H-pyrido[3,4-b]indol-1-yl)phenoxy)propyl)benzyl)oxy)acetamido)-3,3-dimethylbutanoyl)-4-hydroxy-N-(4-(4-methylthiazol-5-yl)benzyl)pyrrolidine-2-carboxamide], with 0.8 nM.
Take `Cc1ncsc1-c1ccc(CNC(=O)[C@@H]2C[C@@H](O)CN2C(=O)[C@@H](NC(=O)COCCCCCCCOc2cc(F)c([C@@H]3c4[nH]c5ccccc5c4C[C@@H](C)N3CC(F)(F)CO)c(F)c2)C(C)(C)C)cc1` [Example 78, (2S,4R)-1-((S)-2-(2-((7-(4-((1R,3R)-2-(2,2-Difluoro-3-hydroxypropyl)-3-methyl-2,3,4,9-tetrahydro-1H-pyrido[3,4-b]indol-1-yl)-3,5-difluorophenoxy)heptyl)oxy)acetamido)-3,3-dimethylbutanoyl)-4-hydroxy-N-(4-(4-methylthiazol-5-yl)benzyl)pyrrolidine-2-carboxamide]: the IC50 worked out at 0.5 nM.
In the case of `Cc1ncsc1-c1ccc(CNC(=O)[C@@H]2C[C@@H](O)CN2C(=O)[C@@H](NC(=O)COCCOCCOCCOCC(=O)Nc2cc(F)c([C@@H]3c4[nH]c5ccccc5c4C[C@@H](C)N3CC(C)(C)F)c(F)c2)C(C)(C)C)cc1` [Example 68, N1-(3,5-difluoro-4-((1R,3R)-2-(2-fluoro-2-methylpropyl)-3-methyl-2,3,4,9-tetrahydro-1H-pyrido[3,4-b]indol-1-yl)phenyl)-N14-((S)-1-((2S,4R)-4-hydroxy-2-((4-(4-methylthiazol-5-yl)benzyl)carbamoyl)pyrrolidin-1-yl)-3,3-dimethyl-1-oxobutan-2-yl)-3,6,9,12-tetraoxatetradecanediamide] it was 1 nM; in that of `Cc1ncsc1-c1ccc(CNC(=O)[C@@H]2C[C@@H](O)CN2C(=O)[C@@H](NC(=O)CCCCNC(=O)/C=C/c2cc(F)c([C@@H]3c4[nH]c5ccccc5c4C[C@@H](C)N3CC(C)(C)F)c(F)c2)C(C)(C)C)cc1` [Example 60, (2S,4R)-1-((S)-2-(5-((E)-3-(3,5-difluoro-4-((1R,3R)-2-(2-fluoro-2-methylpropyl)-3-methyl-2,3,4,9-tetrahydro-1H-pyrido[3,4-b]indol-1-yl)phenyl)acrylamido)pentanamido)-3,3-dimethylbutanoyl)-4-hydroxy-N-(4-(4-methylthiazol-5-yl)benzyl)pyrrolidine-2-carboxamide, Trifluoroacetic Acid], 0.7 nM.
In the case of `Cc1ncsc1-c1ccc(CNC(=O)[C@@H]2C[C@@H](O)CN2C(=O)[C@@H](NC(=O)Cc2ccc(OCCOCCNC(=O)/C=C/c3cc(F)c([C@@H]4c5[nH]c6ccccc6c5C[C@@H](C)N4CC(C)(C)F)c(F)c3)cc2)C(C)(C)C)cc1` [Example 66, (2S,4R)-1-((S)-2-(2-(4-(2-(2-((E)-3-(3,5-difluoro-4-((1R,3R)-2-(2-fluoro-2-methylpropyl)-3-methyl-2,3,4,9-tetrahydro-1H-pyrido[3,4-b]indol-1-yl)phenyl)acrylamido)ethoxy)ethoxy)phenyl)acetamido)-3,3-dimethylbutanoyl)-4-hydroxy-N-(4-(4-methylthiazol-5-yl)benzyl)pyrrolidine-2-carboxamide, Trifluoroacetic Acid] it was 1.2 nM.
In the case of `Cc1ncsc1-c1ccc(CNC(=O)[C@@H]2C[C@@H](O)CN2C(=O)[C@@H](NC(=O)COCCOCCOCCOCC(=O)Nc2ccc([C@@H]3c4[nH]c5ccccc5c4C[C@@H](C)N3CC(C)(C)F)cc2)C(C)(C)C)cc1` [Example 55, N^1-(4-((1R,3R)-2-(2-fluoro-2-methylpropyl)-3-methyl-2,3,4,9-tetrahydro-1H-pyrido[3,4-b]indol-1-yl)phenyl)-N^14—((S)-1-((2S,4R)-4-hydroxy-2-((4-(4-methylthiazol-5-yl)benzyl)carbamoyl)pyrrolidin-1-yl)-3,3-dimethyl-1-oxobutan-2-yl)-3,6,9,12-tetraoxatetradecanediamide, Trifluoroacetic Acid] it was 12 nM; in that of `Cc1ncsc1-c1ccc(CNC(=O)[C@@H]2C[C@@H](O)CN2C(=O)[C@@H](NC(=O)COCCOCCOCCNC(=O)c2cc(F)c([C@@H]3c4[nH]c5ccccc5c4C[C@@H](C)N3CC(C)(C)F)c(F)c2)C(C)(C)C)cc1` [Example 91, (2S,4R)-1-((S)-15-(tert-Butyl)-1-(3,5-difluoro-4-((1R,3R)-2-(2-fluoro-2-methylpropyl)-3-methyl-2,3,4,9-tetrahydro-1H-pyrido[3,4-b]indol-1-yl)phenyl)-1,13-dioxo-5,8,11-trioxa-2,14-diazahexadecan-16-oyl)-4-hydroxy-N-(4-(4-methylthiazol-5-yl)benzyl)pyrrolidine-2-carboxamide], 1.3 nM.
`Cc1ncsc1-c1ccc(CNC(=O)[C@@H]2C[C@@H](O)CN2C(=O)[C@@H](NC(=O)COc2ccc(OCCNC(=O)/C=C/c3cc(F)c([C@@H]4c5[nH]c6ccccc6c5C[C@@H](C)N4CC(C)(C)F)c(F)c3)cc2)C(C)(C)C)cc1` [Example 61, (2S,4R)-1-((S)-2-(2-(4-(2-((E)-3-(3,5-difluoro-4-((1R,3R)-2-(2-fluoro-2-methylpropyl)-3-methyl-2,3,4,9-tetrahydro-1H-pyrido[3,4-b]indol-1-yl)phenyl)acrylamido)ethoxy)phenoxy)acetamido)-3,3-dimethylbutanoyl)-4-hydroxy-N-(4-(4-methylthiazol-5-yl)benzyl)pyrrolidine-2-carboxamide, Trifluoroacetic Acid]: the IC50 was 1 nM.
Then `Cc1ncsc1-c1ccc(CNC(=O)[C@@H]2C[C@@H](O)CN2C(=O)[C@@H](NC(=O)COCc2ccc(COc3cc(F)c([C@@H]4c5[nH]c6ccccc6c5C[C@@H](C)N4CC(C)(C)F)c(F)c3)nc2)C(C)(C)C)cc1` [Example 85, (2S,4R)-1-((S)-2-(2-((6-((3,5-difluoro-4-((1R,3R)-2-(2-fluoro-2-methylpropyl)-3-methyl-2,3,4,9-tetrahydro-1H-pyrido[3,4-b]indol-1-yl)phenoxy)methyl)pyridin-3-yl)methoxy)acetamido)-3,3-dimethylbutanoyl)-4-hydroxy-N-(4-(4-methylthiazol-5-yl)benzyl)pyrrolidine-2-carboxamide], with 0.9 nM.
